Structures can show the parent of a compound that is named as a salt.
Experiments:
[1] = biological target: T1, HCV genotype 1b (BK) NS3 modified enzyme with a R155K mutation (Hepatitis C virus genotype 1b, UniProt P26663, R1181K); assay: HCV NS3 protease time-resolved fluorescence (TRF) assay, genotype 1b R155K; assay type: biochemical; conditions: Ki 1b R155K
T1 construct: HCV genotype 1b (BK) NS3 modified enzyme
How it was run: (§1)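 Pre-incubation of NS3/NS4A protease with inhibitor for 10 min in pH 7.5 HEPES buffer with 10 mM DTT; 25 nM TRF peptide substrate, hydrolysis 6 h at room temperature. Fluorescence read at ex 340/em 615 nm with 400 μs delay, enzyme level set for S/B 5-20; IC50 by four-parameter fit.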

[2] = biological target: HCV NS3 protease genotype 3a (3A-1) (Hepatitis C virus genotype 3a, UniProt Q81258); assay: HCV NS3 protease time-resolved fluorescence (TRF) assay, genotype 3a; assay type: biochemical; conditions: Ki 3a
How it was run: as §1

[3] = first of two values printed in the cell (not explained)
[4] = second of two values printed in the cell (not explained)
[5] = genotype 1b (BK) NS3 R155K, single value

| SMILES | Ki [1, 3] | Ki [1, 4] | Ki [2] | Ki [1, 5] |
| --- | --- | --- | --- | --- |
| C=C[C@@H]1C[C@]1(NC(=O)[C@@H]1C[C@@H]2CN1C(=O)[C@H](C1CCCCC1)NC(=O)O[C@@H]1C[C@H]1CCCCCc1c(nc3ccccc3c1CN1CCN(C)CC1)O2)C(=O)NS(=O)(=O)C1(C)CC1 [Example 266, potassium ({(1R,2S)-1-[({(1aR,5S,8S,10R,22aR)-5-cyclohexyl-17-[(4-methylpiperazin-1-yl)methyl]-3,6-dioxo-1,1a,3,4,5,6,9,10,18,19,20,21,22,22a-tetradecahydro-8H-7,10-methanocyclopropa[18,19][1,10,3,6]dioxadiazacyclononadecino[11,12-b]quinolin-8-yl}carbonyl)amino]-2-ethenylcyclopropyl}carbonyl)[(1-methylcyclopropyl)sulfonyl]azanide] | 0.02 nM | 0.044 nM | 7.5 nM | – |
| C=C[C@@H]1C[C@]1(NC(=O)[C@@H]1C[C@@H]2CN1C(=O)[C@H](C(C)(C)C)NC(=O)O[C@@H]1C[C@H]1CCCCCc1c(nc3cc(C(C)C)ccc3c1OCCN1CCOCC1)O2)C(=O)NS(=O)(=O)C1(C)CC1 [Example 132, (1aR,5S,8S,10R,22aR)-5-tert-butyl-N-[(1R,2S)-2-ethenyl-1-{[(1-methylcyclopropyl)sulfonyl]carbamoyl}cyclopropyl]-17-[2-(morpholin-4-yl)ethoxy]-3,6-dioxo-14-(propan-2-yl)-1,1a,3,4,5,6,9,10,18,19,20,21,22,22a-tetradecahydro-8H-7,10-methanocyclopropa[18,19][1,10,3,6]dioxadiazacyclononadecino[11,12-b]quinoline-8-carboxamide] | – | – | 6.8 nM | 0.39 nM |
| C=C[C@@H]1C[C@]1(NC(=O)[C@@H]1C[C@@H]2CN1C(=O)[C@H](C(C)(C)C)NC(=O)O[C@@H]1C[C@H]1CCCCCc1c(nc3ccccc3c1OC1C3COCC1CN(CCOC)C3)O2)C(=O)NS(=O)(=O)C1(C)CC1 (stereo partly drawn) [Example 261, (1aR,5S,8S,10R,22aR)-5-tert-butyl-N-[(1R,2S)-2-ethenyl-1-{[(1-methylcyclopropyl)sulfonyl]carbamoyl}cyclopropyl]-17-{[7-(2-methoxyethyl)-3-oxa-7-azabicyclo[3.3.1]non-9-yl]oxy}-3,6-dioxo-1,1a,3,4,5,6,9,10,18,19,20,21,22,22a-tetradecahydro-8H-7,10-methanocyclopropa[18,19][1,10,3,6]dioxadiazacyclononadecino[11,12-b]quinoline-8-carboxamide] | 0.026 nM | 0.155 nM | 3.45 nM | – |
| C=C[C@@H]1C[C@]1(NC(=O)[C@@H]1C[C@@H]2CN1C(=O)[C@H](C1(C)CCCCC1)NC(=O)O[C@@H]1C[C@H]1CCCCCc1c(nc3ccccc3c1OC1CCNCC1)O2)C(=O)NS(=O)(=O)C1(C)CC1 [Example 268, (1aR,5S,8S,10R,22aR)—N-[(1R,2S)-2-ethenyl-1-{[(1-methylcyclopropyl)sulfonyl]carbamoyl}cyclopropyl]-5-(1-methylcyclohexyl)-3,6-dioxo-17-(piperidin-4-yloxy)-1,1a,3,4,5,6,9,10,18,19,20,21,22,22a-tetradecahydro-8H-7,10-methanocyclopropa[18,19][1,10,3,6]dioxadiazacyclononadecino[11,12-b]quinoline-8-carboxamide] | 0.012 nM | 0.034 nM | 0.2 nM | – |
| C=C[C@@H]1C[C@]1(NC(=O)[C@@H]1C[C@@H]2CN1C(=O)[C@H](C1CCCCC1)NC(=O)O[C@@H]1C[C@H]1CCCCCc1c(nc3ccccc3c1OC1CCN(CCF)CC1)O2)C(=O)NS(=O)(=O)C1(C)CC1 [Example 272, 4-{[(1aR,5S,8S,10R,22aR)-5-cyclohexyl-8-{[(1R,2S)-2-ethenyl-1-{[(1-methylcyclopropyl)sulfonyl]carbamoyl}cyclopropyl]carbamoyl}-3,6-dioxo-1,1a,3,4,5,6,9,10,18,19,20,21,22,22a-tetradecahydro-8H-7,10-methanocyclopropa[18,19][1,10,3,6]dioxadiazacyclononadecino[11,12-b]quinolin-17-yl]oxy}-1-(2-fluoroethyl)piperidinium formate] | 0.015 nM | 0.128 nM | 2.12 nM | – |
| C=C[C@@H]1C[C@]1(NC(=O)[C@@H]1C[C@@H]2CN1C(=O)[C@H](C1CCCCC1)NC(=O)O[C@@H]1C[C@H]1CCCCCc1c(nc3ccccc3c1OC1CCN(CC)CC1)O2)C(=O)NS(=O)(=O)C1(C)CC1 [Example 239, 4-{[(1aR,5S,8S,10R,22aR)-5-cyclohexyl-8-{[(1R,2S)-2-ethenyl-1-{[(1-methylcyclopropyl)sulfonyl]carbamoyl}cyclopropyl]carbamoyl}-3,6-dioxo-1,1a,3,4,5,6,9,10,18,19,20,21,22,22a-tetradecahydro-8H-7,10-methanocyclopropa[18,19][1,10,3,6]dioxadiazacyclononadecino[11,12-b]quinolin-17-yl]oxy}-1-ethylpiperidinium formate] | 0.016 nM | 0.064 nM | 0.278 nM | – |
| C=C[C@@H]1C[C@]1(NC(=O)[C@@H]1C[C@@H]2CN1C(=O)[C@H](C1CCCCC1)NC(=O)O[C@@H]1C[C@H]1CCCCCc1c(nc3ccccc3c1OCCCN1CCC(F)(F)CC1)O2)C(=O)NS(=O)(=O)C1(C)CC1 [Example 170] | – | – | 21 nM | 1.1 nM |
| C=C[C@@H]1C[C@]1(NC(=O)[C@@H]1C[C@@H]2CN1C(=O)[C@H](C(C)(C)C)NC(=O)O[C@@H]1C[C@H]1CCCCCc1c(nc3ccccc3c1OCCN(C)c1ccccc1)O2)C(=O)NS(=O)(=O)C1(C)CC1 [Example 130, (1aR,5S,8S,10R,22aR)-5-tert-butyl-N-[(1R,2S)-2-ethenyl-1-{[(1-methylcyclopropyl)sulfonyl]carbamoyl}cyclopropyl]-17-{2-[methyl(phenyl)amino]ethoxy}-3,6-dioxo-1,1a,3,4,5,6,9,10,18,19, cyclopropa[18,19][1,10,3,6] dioxadiazacyclononadecino [11,12-b]quinoline-8-carboxamide] | – | – | 18 nM | 2.2 nM |
| C=C[C@@H]1C[C@]1(NC(=O)[C@@H]1C[C@@H]2CN1C(=O)[C@H](C(C)(C)C)NC(=O)O[C@]1(C)C[C@H]1CCCCCc1c(nc3ccccc3c1OCCN1CCOCC1)O2)C(=O)NS(=O)(=O)C1(COC)CC1 [Example 99, (1aR,5S,8S,10R,22aR)-5-tert-butyl-N-[(1R,2S)-2-ethenyl-1-({[1-(methoxymethyl)cyclopropyl]sulfonyl}carbamoyl)cyclopropyl]-1a-methyl-17-[2-(morpholin-4-yl)ethoxy]-3,6-dioxo-1,1a, 3,4,5,6,9,10,18,19,20,21,22,22a-tetradecahydro-8H-7,10-methano-cyclopropa[18,19][1,10,3,6] dioxadiazacyclononadecino [11,12-b]quinoline-8-carboxamide] | – | – | 2.8 nM | 0.28 nM |
| C=C[C@@H]1C[C@]1(NC(=O)[C@@H]1C[C@@H]2CN1C(=O)[C@H](C(C)(C)C)NC(=O)O[C@@H]1C[C@H]1CCCCCc1c(nc3ccccc3c1OCCCN1CC(OC)C1)O2)C(=O)NS(=O)(=O)C1(C)CC1 [Example 157, (1aR,5S,8S,10R,22aR)-5-tert-butyl-N-[(1R,2S)-2-ethenyl-1-{[(1-methylcyclopropyl)sulfonyl]carbamoyl}cyclopropyl]-17-[3-(3-methoxyazetidin-1-yl)propoxy]-3,6-dioxo-1,1a,3,4,5,6,9,10, 18,19,20,21,22,22a-tetradecahydro-8H-7,10-methanocyclopropa[18,19] [1,10,3,6]dioxadiazacyclononadecino [11,12-b]quinoline-8-carboxamide] | – | – | 0.76 nM | 0.049 nM |
| C=C[C@@H]1C[C@]1(NC(=O)[C@@H]1C[C@@H]2CN1C(=O)[C@H](C(C)(C)C)NC(=O)O[C@@H]1C[C@H]1CCCCCc1c(nc3ccccc3c1OC[C@H]1CNCCO1)O2)C(=O)NS(=O)(=O)C1(C)CC1 [Example 221, (1aR,5S,8S,10R,22aR)-5-tert-butyl-N-[(1R,2S)-2-ethenyl-1-{[(1-methylcyclopropyl)sulfonyl]carbamoyl}cyclopropyl]-17-[(2R)-morpholin-2-ylmethoxy]-3,6-dioxo-1,1a,3,4,5,6,9,10,18,19,20,21,22,22a-tetradecahydro-8H-7,10-methanocyclopropa[18,19][1,10,3,6]dioxadiazacyclononadecino[11,12-b]quinoline-8-carboxamide] | – | – | 1.4 nM | 0.05 nM |
| C=C[C@@H]1C[C@]1(NC(=O)[C@@H]1C[C@@H]2CN1C(=O)[C@H](C(C)(C)C)NC(=O)O[C@@H]1C[C@H]1CCCCCc1c(nc3ccccc3c1OCCCN(C)Cc1n[nH]c(=O)[nH]1)O2)C(=O)NS(=O)(=O)C1(C)CC1 [Example 199, (1aR,5S,8S,10R,22aR)-5-tert-butyl-N-[(1R,2S)-2-ethenyl-1-{[(1-methylcyclopropyl)sulfonyl]carbamoyl}cyclopropyl]-17-(3-{methyl[(5-oxo-4,5-dihydro-1H-1,2,4-triazol-3-yl)methyl]amino}propoxy)-3,6-dioxo-1,1a,3,4,5,6,9,10,18,19,20,21, 22,22a-tetradecahydro-8H-7,10-methanocyclopropa[18,19][1,10,3,6] dioxadiazacyclononadecino[11,12-b] quinoline-8-carboxamide] | – | – | 0.74 nM | 0.057 nM |
| C=C[C@@H]1C[C@]1(NC(=O)[C@@H]1C[C@@H]2CN1C(=O)[C@H](C1CCCCC1)NC(=O)O[C@@H]1C[C@H]1CCCCCc1c(nc3ccccc3c1OC1CC3COCC(C1)N3C(=O)OC(C)(C)C)O2)C(=O)NS(=O)(=O)C1(C)CC1 (stereo partly drawn) [Example 287, tert-butyl 7-{[(1aR,5S,8S,10R,22aR)-5-cyclohexyl-8-{[(1R,2S)-2-ethenyl-1-{[(1-methylcyclopropyl)sulfonyl]carbamoyl}cyclopropyl]carbamoyl}-3,6-dioxo-1,1a,3,4,5,6,9,10,18,19,20,21,22,22a-tetradecahydro-8H-7,10-methanocyclopropa[18,19][1,10,3,6]dioxadiazacyclononadecino[11,12-b]quinolin-17-yl]oxy}-3-oxa-9-azabicyclo[3.3.1]nonane-9-carboxylate] | 0.092 nM | 2.55 nM | 58 nM | – |

Source: patent publication US9328138B2 (priority 2011, dated 2016)
